Experimental data from patent US9138013B2, “Sweet flavor modifier” (SENOMYX, INC., priority 2012, dated 2015).

Legend:
[1] = tested on: human panelists; assay: Paired comparison test, taste of the compound alone in low sodium phosphate buffer (LSB); type: in vivo
Procedure: (§1) Test samples containing experimental compounds are presented in pairs to the panelist and they are asked to determine which of the sample is sweeter. […] A group of 10-16 or more panelists participated in each test. Subjects refrained from eating or drinking (except water) for at least 1 hour prior to the test. Subjects rinsed with water several times to clean the mouth.
(§2) Taste tests were performed with sucrose or HFCS as the sweetener in the presence or absence of compound. A 0.2% stock solution of compound in water with sodium bicarbonate was prepared and then this stock solution was diluted in the final sample to achieve the targeted final concentration of compound. For the sample evaluated at pH 2.8 the pH of the solution is decreased to about pH 2.8 using citric acid. Taste samples were also prepared in a low sodium phosphate buffer (pH 7.1; “LSB”) lacking sucrose or HFCS to evaluate the taste of the compound alone. Low sodium phosphate buffer consists of 0.3 mM KCl, 0.5 mM Na2HPO4, and 0.175 mM KH2PO4. Sample volumes are usually 20 ml.
(§3) In one paired comparison test, the panelist is presented with two different samples and asked to identify the sample which is sweeter. The samples within a paired comparison test are presented in a randomized, counterbalanced order. Panelists have up to a 1 minute delay between taste tests to clear the mouth of any tastes.
(§4) Binomial probability tables are used to determine the probability of the correct number of responses occurring for each test at alpha=0.05.

[2] = tested on: human panelists; assay: Sucrose potentiation in Iced Coffee product prototype, paired comparison test; type: in vivo; conditions: Table 19: Iced Coffee, 8% Sucrose vs 4% Sucrose + 7.6 μM Compound K2; n = 33 (11 panelists × 3 reps)
Procedure: All samples were made in an Iced Coffee formulation consisting of Brewed Coffee, 2% milk, Sucrose and water. The samples were prepared using a 0.2% Compound stock made with 0.2% sodium bicarbonate and water. Tests samples are presented in pairs to the panelists and they are asked to determine which of the sample is sweeter.
as §3, §4

[3] = tested on: human panelists; assay: Paired comparison test, sweet flavor potentiation with sucrose or HFCS as the sweetener; type: in vivo
Procedure: as §1, §2, §3, §4

NC1=NS(=O)(=O)Nc2cccc(OC[C@H]3CCCN(C(=O)c4ccncc4)C3)c21 [Example 3, (S)-(3-(((4-amino-2,2-dioxido-1H-benzo[c][1,2,6]thiadiazin-5-yl)oxy)methyl)piperidin-1-yl)(pyridin-4-yl)methanone]
melting point: > 250 °C

OC[C@H]1O[C@@](CO)(O[C@H]2O[C@H](CO)[C@@H](O)[C@H](O)[C@H]2O)[C@@H](O)[C@@H]1O [Sucrose, sucrose]
Sample selected as sweeter by panelists, Total ([1]; Table 3: 1% Sucrose vs LSB + 26.3 μM Compound Q1, n = 26 (13 panelists × 2 reps)): 14 | Sample selected as sweeter by panelists, Total ([1]; Table 6: 1% Sucrose vs LSB + 20.4 μM Compound J2, n = 26 (13 panelists × 2 reps)): 14 | Sample selected as sweeter by panelists, Total ([1]; Table 9: 1% Sucrose vs LSB + 12.7 μM Compound K2, n = 51 (17 panelists × 2 reps)): 29 | Sample selected as sweeter by panelists, Total ([1]; Table 12: 1% Sucrose vs LSB + 12.7 μM Compound L2, n = 36 (12 panelists × 3 reps)): 19 | Sample selected as sweeter by panelists, Total ([1]; Table 15: 1% Sucrose vs LSB + 11.9 μM Compound B1, n = 45 (15 panelists × 3 reps)): 19 | Sample selected as sweeter by panelists, Total ([1]; Table 18: 1% Sucrose vs LSB + 9.2 μM Compound F3, n = 30 (15 panelists × 2 reps)): 16 | Sample selected as sweeter by panelists, Total [2]: 16 | Sample selected as sweeter by panelists, Total ([3]; Table 1-a: 12% Sucrose vs 6% Sucrose + 21 μM Compound Q1, pH 7.1, n = 30 (15 panelists × 2 reps)): 18 | Sample selected as sweeter by panelists, Total ([3]; Table 1-b: 12% Sucrose vs 6% Sucrose + 7.9 μM Compound Q1, pH 2.8, n = 42 (14 panelists × 3 reps)): 24 | Sample selected as sweeter by panelists, Total ([3]; Table 4-a: 12% Sucrose vs 6% Sucrose + 12.7 μM Compound J2, pH 7.1, n = 51 (17 panelists × 3 reps)): 28 | Sample selected as sweeter by panelists, Total ([3]; Table 4-b: 12% Sucrose vs 6% Sucrose + 12.7 μM Compound J2, pH 2.8, n = 45 (15 panelists × 3 reps)): 20 | Sample selected as sweeter by panelists, Total ([3]; Table 7-a: 11% Sucrose vs 6% Sucrose + 12.7 μM Compound K2, pH 7.1, n = 36 (12 panelists × 3 reps)): 20 | Sample selected as sweeter by panelists, Total ([3]; Table 7-b: 12% Sucrose vs 6% Sucrose + 7.6 μM Compound K2, pH 2.8, n = 36 (18 panelists × 2 reps)): 21 | Sample selected as sweeter by panelists, Total ([3]; Table 10: 12% Sucrose vs 6% Sucrose + 12.7 μM Compound L2, pH 7.1, n = 42 (14 panelists × 3 reps)): 19 | Sample selected as sweeter by panelists, Total ([3]; Table 13: 12% Sucrose vs 6% Sucrose + 11.9 μM Compound B1, pH 7.1, n = 34 (17 panelists × 2 reps)): 19 | Sample selected as sweeter by panelists, Total ([3]; Table 16: 10% Sucrose vs 6% Sucrose + 9.2 μM Compound F3, pH 7.1, n = 33 (11 panelists × 3 reps)): 16
